Assay results reported in the supplement of paper PMC11619387.
Values after ≈ are worked out from the molar mass of the structure shown.

Legend:
[1] = test system: Pseudomonas aeruginosa PAO1-Xen41; assay: Emax, maximal drug effect on net growth rate (fitted lower asymptote) (per hour (slope of log luminescence)); higher = weaker maximal killing (less negative)
Description: (§1)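 Time-kill assays of bioluminescent P. aeruginosa PAO1-Xen41 (start ~5e6 CFU/mL) in 96-well plates at 37 °C, 150 rpm. Luminescence was read hourly for 20 h in cation-adjusted Mueller-Hinton broth, either non-conditioned (MH broth with or without supplements) or conditioned by one of 13 CF-associated species, then filter-sterilised and nutrient-replenished. Growth/kill rates came from log-linear regression of the exponential phase at 9-10 antibiotic concentrations, and Hill (Emax) models were fitted with drc for each replicate.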

[2] = test system: Pseudomonas aeruginosa PAO1-Xen41; assay: Hill coefficient of concentration-effect curve (unitless); higher = steeper concentration-effect curve
Description: as §1

[3] = test system: Pseudomonas aeruginosa PAO1-Xen41; assay: EC50 of growth/kill rate concentration-effect curve
Description: as §1

C[C@@H](O)[C@H]1C(=O)N2C(C(=O)O)=C(S[C@@H]3CN[C@H](C(=O)N(C)C)C3)[C@H](C)[C@H]12 [meropenem]
Conditions | EC50, [3] [µg/mL] | Emax, [1] | Hill coefficient, [2]
medium (conditioned by secondary species or non-conditioned control): A. baumannii | 2.68 (≈ 6.99 µM) | -0.0771 | 6.64
medium (conditioned by secondary species or non-conditioned control): A. fumigatus | 0.389 (≈ 1.01 µM) | -0.093 | 7.42
medium (conditioned by secondary species or non-conditioned control): A. xylosoxidans | 1.25 (≈ 3.26 µM) | -0.0831 | 4.28
medium (conditioned by secondary species or non-conditioned control): B. cepacia | 0.916 (≈ 2.39 µM) | -0.0593 | 12.1
medium (conditioned by secondary species or non-conditioned control): C. albicans | 0.784 (≈ 2.04 µM) | -0.12 | 3.15
medium (conditioned by secondary species or non-conditioned control): H. influenzae | 0.6259 (≈ 1.63 µM) | -0.172 | 2.15
medium (conditioned by secondary species or non-conditioned control): M. abcessus | 0.609 (≈ 1.59 µM) | -0.0816 | 5.75
medium (conditioned by secondary species or non-conditioned control): M. avium | 0.337 (≈ 0.878 µM) | -0.0509 | 7.81
medium (conditioned by secondary species or non-conditioned control): M. catarrhalis | 1.91 (≈ 4.99 µM) | -0.0746 | 6.15
medium (conditioned by secondary species or non-conditioned control): MH broth | 0.612 (≈ 1.6 µM) | -0.0947 | 4.27
medium (conditioned by secondary species or non-conditioned control): MH broth + ADC | 0.2684 | -0.0675 | 15.3
medium (conditioned by secondary species or non-conditioned control): MH broth + LHB + NAD | 0.663 | -0.125 | 3.73
medium (conditioned by secondary species or non-conditioned control): MH broth + glucose | 0.628 | -0.0923 | 3
medium (conditioned by secondary species or non-conditioned control): R. mannitolilytica | 0.6203 (≈ 1.62 µM) | -0.0818 | 8.16
medium (conditioned by secondary species or non-conditioned control): S. aureus | 0.7071 (≈ 1.84 µM) | -0.0714 | 10
medium (conditioned by secondary species or non-conditioned control): S. maltophilia | 1.18 (≈ 3.07 µM) | -0.0918 | 3.29
medium (conditioned by secondary species or non-conditioned control): S. pneumoniae | 0.938 (≈ 2.45 µM) | -0.189 | 4.34

C[C@@H]1O[C@@H]1P(=O)(O)O [fosfomycin]
Conditions | EC50, [3] [µg/mL] | Emax, [1] | Hill coefficient, [2]
medium (conditioned by secondary species or non-conditioned control): A. baumannii | 149 (≈ 1080 µM) | -0.132 | 2.21
medium (conditioned by secondary species or non-conditioned control): A. fumigatus | 16.6 (≈ 120 µM) | -0.117 | 1.48
medium (conditioned by secondary species or non-conditioned control): A. xylosoxidans | 201 (≈ 1450 µM) | -0.189 | 2.09
medium (conditioned by secondary species or non-conditioned control): B. cepacia | 81.7 (≈ 592 µM) | -0.0776 | 3.68
medium (conditioned by secondary species or non-conditioned control): C. albicans | 10.6 (≈ 77 µM) | -0.134 | 1.72
medium (conditioned by secondary species or non-conditioned control): H. influenzae | 72.3 (≈ 524 µM) | -0.354 | 1.57
medium (conditioned by secondary species or non-conditioned control): M. abcessus | 43.8 (≈ 318 µM) | -0.177 | 2.3
medium (conditioned by secondary species or non-conditioned control): M. avium | 34.4 (≈ 249 µM) | -0.196 | 1.9
medium (conditioned by secondary species or non-conditioned control): M. catarrhalis | 66.6 (≈ 483 µM) | -0.126 | 2.47
medium (conditioned by secondary species or non-conditioned control): MH broth | 22.4 (≈ 163 µM) | -0.173 | 2.99
medium (conditioned by secondary species or non-conditioned control): MH broth + ADC | 23.6 | -0.194 | 2.25
medium (conditioned by secondary species or non-conditioned control): MH broth + LHB + NAD | 47 | -0.233 | 1.88
medium (conditioned by secondary species or non-conditioned control): MH broth + glucose | 17.7 | -0.136 | 1.47
medium (conditioned by secondary species or non-conditioned control): R. mannitolilytica | 65.4 (≈ 473 µM) | -0.111 | 3.11
medium (conditioned by secondary species or non-conditioned control): S. aureus | 47.35 (≈ 343 µM) | -0.122 | 3.29
medium (conditioned by secondary species or non-conditioned control): S. maltophilia | 81.9 (≈ 593 µM) | -0.102 | 2.83
medium (conditioned by secondary species or non-conditioned control): S. pneumoniae | 45.9 (≈ 332 µM) | -0.276 | 1.54

CCC(C)CCCC(=O)N[C@@H](CCN)C(=O)N[C@H](C(=O)N[C@@H](CCN)C(=O)N[C@H]1CCNC(=O)[C@H]([C@@H](C)O)NC(=O)[C@H](CCN)NC(=O)[C@H](CCN)NC(=O)[C@H](CC(C)C)NC(=O)[C@@H](CC(C)C)NC(=O)[C@H](CCN)NC1=O)[C@@H](C)O (some centres undefined) [colistin]
Conditions | EC50, [3] [µg/mL] | Emax, [1] | Hill coefficient, [2]
medium (conditioned by secondary species or non-conditioned control): A. baumannii | 3.78 (≈ 3.27 µM) | -0.97093 | 5.23
medium (conditioned by secondary species or non-conditioned control): A. fumigatus | 4 (≈ 3.47 µM) | -1.07 | 0.809
medium (conditioned by secondary species or non-conditioned control): A. xylosoxidans | 3.71 (≈ 3.21 µM) | -0.971 | 4.77
medium (conditioned by secondary species or non-conditioned control): B. cepacia | 2.64 (≈ 2.28 µM) | -1.015 | 1.13
medium (conditioned by secondary species or non-conditioned control): C. albicans | 1.65 (≈ 1.43 µM) | -0.9963 | 1.39
medium (conditioned by secondary species or non-conditioned control): H. influenzae | 0.634 (≈ 0.549 µM) | -0.1151 | 7.12
medium (conditioned by secondary species or non-conditioned control): M. abcessus | 1.56 (≈ 1.35 µM) | -0.976 | 2.24
medium (conditioned by secondary species or non-conditioned control): M. avium | 1.04 (≈ 0.899 µM) | -0.954 | 1.72
medium (conditioned by secondary species or non-conditioned control): M. catarrhalis | 0.325 (≈ 0.282 µM) | -0.139 | 14.6
medium (conditioned by secondary species or non-conditioned control): MH broth | 1.45 (≈ 1.26 µM) | -0.963 | 2.54
medium (conditioned by secondary species or non-conditioned control): MH broth + ADC | 0.607 | -0.901 | 11.8
medium (conditioned by secondary species or non-conditioned control): MH broth + LHB + NAD | 0.324 | -0.156 | 12.4
medium (conditioned by secondary species or non-conditioned control): MH broth + glucose | 1.22 | -0.9802 | 2.92
medium (conditioned by secondary species or non-conditioned control): R. mannitolilytica | 1.32 (≈ 1.14 µM) | -0.958 | 1.77
medium (conditioned by secondary species or non-conditioned control): S. aureus | 1.08 (≈ 0.939 µM) | -0.966 | 2.47
medium (conditioned by secondary species or non-conditioned control): S. maltophilia | 3.83 (≈ 3.31 µM) | -0.97063 | 7.36
medium (conditioned by secondary species or non-conditioned control): S. pneumoniae | 0.325 (≈ 0.281 µM) | -0.117 | 7.9

C[C@H]1[C@H](NC(=O)/C(=N\OC(C)(C)C(=O)O)c2csc(N)n2)C(=O)N1S(=O)(=O)O [aztreonam]
Conditions | EC50, [3] [µg/mL] | Emax, [1] | Hill coefficient, [2]
medium (conditioned by secondary species or non-conditioned control): A. baumannii | 4.5 (≈ 10.3 µM) | -0.0894 | 6.71
medium (conditioned by secondary species or non-conditioned control): A. fumigatus | 5.15 (≈ 11.8 µM) | -0.0521 | 5.79
medium (conditioned by secondary species or non-conditioned control): A. xylosoxidans | 4.96 (≈ 11.4 µM) | -0.0816 | 6.69
medium (conditioned by secondary species or non-conditioned control): B. cepacia | 4.4 (≈ 10.1 µM) | -0.108 | 7.76
medium (conditioned by secondary species or non-conditioned control): C. albicans | 6.25 (≈ 14.4 µM) | -0.0614 | 3.57
medium (conditioned by secondary species or non-conditioned control): H. influenzae | 5.7 (≈ 13.1 µM) | -0.196 | 1.98
medium (conditioned by secondary species or non-conditioned control): M. abcessus | 4.66 (≈ 10.7 µM) | -0.0657 | 6.22
medium (conditioned by secondary species or non-conditioned control): M. avium | 4.58 (≈ 10.5 µM) | -0.0782 | 6.26
medium (conditioned by secondary species or non-conditioned control): M. catarrhalis | 5.07 (≈ 11.6 µM) | -0.16 | 4.2
medium (conditioned by secondary species or non-conditioned control): MH broth | 4.48 (≈ 10.3 µM) | -0.0757 | 7.92
medium (conditioned by secondary species or non-conditioned control): MH broth + ADC | 4.55 | -0.0421 | 5.14
medium (conditioned by secondary species or non-conditioned control): MH broth + LHB + NAD | 4.7 | -0.148 | 3.43
medium (conditioned by secondary species or non-conditioned control): MH broth + glucose | 5.04 | -0.0548 | 4.64
medium (conditioned by secondary species or non-conditioned control): R. mannitolilytica | 4.356 (≈ 10 µM) | -0.0751 | 7.94
medium (conditioned by secondary species or non-conditioned control): S. aureus | 4.88 (≈ 11.2 µM) | -0.072 | 4.66
medium (conditioned by secondary species or non-conditioned control): S. maltophilia | 4.32 (≈ 9.92 µM) | -0.114 | 3.3
medium (conditioned by secondary species or non-conditioned control): S. pneumoniae | 5.6 (≈ 12.9 µM) | -0.138 | 3.85
